Results reported in patent US20170371042A1, “CONTRAST AGENT FOR OPTICAL IMAGING, USE THEREOF AND APPARATUS USING THE SAME” (KYUNGPOOK NATIONAL UNIVERSITY INDUSTRY- ACADEMIC …, priority 2009, published 2017).

What was measured:
[1] = cited from earlier work; for Ece mean: conversion electron; for Decay mode EC (%): electron capture
[2] = normal mouse (C3H/HeN), 500 μCi intraperitoneally, 40 minutes post-injection
Description: 500 mCi of ^124I was injected intraperitoneally into a normal mouse (C3H/HeN, Orient Bio Inc., Korea). 40 minutes after the injection, a luminescence image was obtained by scanning the mouse for 1 minute in the lying position.

[3] = Luminescence imaging using [^18F]FDG; type: in vivo; settings: BALB/c mouse bearing luciferase-transfected 4T1 tumour cells, 1 hour after injecting 409 μCi via tail vein, no luciferin
Description: A BALB/c mouse with a luciferase-transfected 4T1 tumor was injected with […] of [^18F]FDG via the tail vein. One hour after the injection, the mouse was scanned for 3 minutes in the prone position using IVIS 200. […] The brain (red arrow) and the brown fat (white arrow) are clearly visualized.

[131I-].[Na+] [^131I, [^131I]NaI]
half-life [1]: (8.0 d)

[^99mTc]TcO4^−
half-life [1]: (6.0 h) | Ece mean [1]: 14 keV | Decay mode IT (%) ([1]; isomeric transition): (100) %

[64Cu+2].[Cl-].[Cl-] [^64Cu, [^64Cu]CuCl2]
half-life [1]: (12.7 h)

[Cl][111In]([Cl])[Cl] [^111In, [^111In]InCl3]
half-life [1]: (2.8 d) | Ece mean [1]: 176 keV | Decay mode EC (%) [1]: (100) %

[124I-].[Na+] [^124I, [^124I]NaI]
half-life [1]: (4.2 d) | Decay mode EC (%) [1]: (77) % | uptake seen in luminescence image [2]: high uptake in the thyroid and bladder region

[68Ga+3].[Cl-].[Cl-].[Cl-] [^68Ga, [^68Ga]GaCl3]
half-life [1]: (68 min) | Decay mode EC (%) [1]: (11) %

OC[C@H]1OC(O)[C@H]([18F])[C@@H](O)[C@@H]1O (stereo partly shown) [^18F, [^18F]FDG]
half-life [1]: (110 min) | Decay mode EC (%) [1]: (3) % | luminescence signal in mouse image [3]: intense signal was detected in the brain and brown fat area on the shoulder
